Data on 2 molecules can be found in paper PMC5640156 (Journal of the American Chemical Society, 2017).

Changes are numbered by the printed parent chain.

One assay addresses T1, P450cam (Pseudomonas putida, UniProt P00183, R187A).
T1 sequence (P00183 2-415 R187A): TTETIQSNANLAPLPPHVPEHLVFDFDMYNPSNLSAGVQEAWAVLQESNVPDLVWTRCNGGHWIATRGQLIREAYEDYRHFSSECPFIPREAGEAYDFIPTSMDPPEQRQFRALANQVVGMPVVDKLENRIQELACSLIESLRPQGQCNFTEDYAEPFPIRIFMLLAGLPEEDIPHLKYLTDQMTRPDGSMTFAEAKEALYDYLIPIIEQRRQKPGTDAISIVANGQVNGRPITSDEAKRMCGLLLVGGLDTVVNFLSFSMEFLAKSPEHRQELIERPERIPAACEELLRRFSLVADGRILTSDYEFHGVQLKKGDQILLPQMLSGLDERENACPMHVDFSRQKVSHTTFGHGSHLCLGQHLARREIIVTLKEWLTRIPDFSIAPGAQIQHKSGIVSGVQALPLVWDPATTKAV
The experiment in a line: isothermal titration calorimetry. The assay is classed as binding.

The target of assay [1] is T2, R186A mutant of cytochrome P450cam (Pseudomonas putida, UniProt P00183 2-415, R186A).
T2 sequence: T1 sequence (P00183 2-415 R187A) with R186A
The experiment in a line: ITC.

Take `CC1(C)[C@@H]2CC[C@@]1(C)C(=O)C2` [D-camphor]: at P450cam, binding was put at a Kd of 32.2 ± 4 µM.

B1: putidaredoxin (natural protein, Pseudomonas putida)
chain: MSKVVYVSHDGTRRELDVADGVSLMQAAVSNGIYDIVGDCGGSASCATCHVYVNEAFTDKVPAANEREIGMLECVTAELKPNSRLCCQIIMTPELDGIVVDVPDRQW
Consider B1, for which, in assay [1], binding was put at a Kd of 22.1 µM.
